Like-named read-outs stand apart in the source and are kept apart here. *1 amine or outer side, *2 acyl side, *3 side chain or, on linkers, in order; H or OH if unused. Where a SMILES comes first, the peptide text is derived from it. [ ]: non-standard residue; d: D form. The star is where a group is joined. X1 = Cc1nc(N[*:1])sc1-c1cc(C(=O)[*:2])n[nH]1; Bz = O=C(c1ccccc1)*
Legend:
Test in all cases: cell-based
JHR (GCE:TAI) [1] = target: T1, JHR (GCE:TAI) (Drosophila melanogaster, UniProt Q9VXW7); conditions: Drosophila Kc167, read-out: JHR Efficacy [%]
human AHR [2] = target: T2, human AHR (Homo sapiens, UniProt P35869); set-up: species or system HepG2 (AZ-AHR); conditions: HepG2, read-out: AHR Efficacy [%], AGO
JHR (GCE:TAI) [3] = target: T1, JHR (GCE:TAI); conditions: Drosophila Kc167, read-out: JHR Efficacy [%]; remark: listed apart in the source
human AHR [4] = target: T2, human AHR; set-up: species or system HepG2 (AZ-AHR); conditions: HepG2, read-out: AHR Efficacy [%]

T2 sequence (P35869 11-848): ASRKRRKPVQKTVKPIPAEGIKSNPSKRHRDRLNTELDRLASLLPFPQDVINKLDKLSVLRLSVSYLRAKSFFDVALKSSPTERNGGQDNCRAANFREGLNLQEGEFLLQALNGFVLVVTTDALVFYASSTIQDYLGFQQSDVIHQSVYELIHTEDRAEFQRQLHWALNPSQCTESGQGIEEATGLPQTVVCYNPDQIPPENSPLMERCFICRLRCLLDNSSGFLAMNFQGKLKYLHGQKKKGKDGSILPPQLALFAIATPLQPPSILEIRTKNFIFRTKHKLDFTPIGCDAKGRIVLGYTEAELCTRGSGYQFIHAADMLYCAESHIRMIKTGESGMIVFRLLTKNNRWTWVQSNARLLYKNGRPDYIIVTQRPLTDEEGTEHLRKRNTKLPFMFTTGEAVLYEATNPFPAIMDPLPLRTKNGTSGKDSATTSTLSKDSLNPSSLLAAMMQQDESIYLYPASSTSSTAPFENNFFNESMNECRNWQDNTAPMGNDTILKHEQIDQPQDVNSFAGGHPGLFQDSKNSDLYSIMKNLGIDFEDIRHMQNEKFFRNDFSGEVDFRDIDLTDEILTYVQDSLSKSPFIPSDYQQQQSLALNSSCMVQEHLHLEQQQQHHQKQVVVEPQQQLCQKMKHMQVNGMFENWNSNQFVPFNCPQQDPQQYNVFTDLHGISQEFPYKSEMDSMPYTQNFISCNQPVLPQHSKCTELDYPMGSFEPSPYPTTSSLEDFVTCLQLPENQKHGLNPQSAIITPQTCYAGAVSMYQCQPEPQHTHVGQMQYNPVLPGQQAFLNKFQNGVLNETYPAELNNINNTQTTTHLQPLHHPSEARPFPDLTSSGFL
T2 sequence (P27540 2-789 partner): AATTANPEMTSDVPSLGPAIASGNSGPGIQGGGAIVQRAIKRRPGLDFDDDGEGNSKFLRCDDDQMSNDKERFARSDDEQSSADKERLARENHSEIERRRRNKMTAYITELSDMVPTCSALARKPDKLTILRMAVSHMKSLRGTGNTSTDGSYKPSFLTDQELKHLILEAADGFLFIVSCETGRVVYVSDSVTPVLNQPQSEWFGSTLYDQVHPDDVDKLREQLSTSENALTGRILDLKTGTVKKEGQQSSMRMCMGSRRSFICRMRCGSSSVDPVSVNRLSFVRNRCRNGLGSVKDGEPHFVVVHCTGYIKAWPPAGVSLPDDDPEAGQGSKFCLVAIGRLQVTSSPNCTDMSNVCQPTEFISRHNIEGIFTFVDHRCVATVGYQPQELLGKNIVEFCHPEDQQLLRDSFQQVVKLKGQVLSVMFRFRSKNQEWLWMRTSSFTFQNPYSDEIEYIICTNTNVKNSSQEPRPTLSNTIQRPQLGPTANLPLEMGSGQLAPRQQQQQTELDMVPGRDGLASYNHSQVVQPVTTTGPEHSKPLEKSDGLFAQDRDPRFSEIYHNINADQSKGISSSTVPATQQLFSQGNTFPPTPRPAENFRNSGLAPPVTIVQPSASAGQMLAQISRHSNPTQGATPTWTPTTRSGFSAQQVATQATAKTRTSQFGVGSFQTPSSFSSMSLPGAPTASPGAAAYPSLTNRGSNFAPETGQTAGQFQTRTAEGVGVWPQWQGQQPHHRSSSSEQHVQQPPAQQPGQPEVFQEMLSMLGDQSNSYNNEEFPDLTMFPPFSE
T1 sequence (Q9VXW7 1-959): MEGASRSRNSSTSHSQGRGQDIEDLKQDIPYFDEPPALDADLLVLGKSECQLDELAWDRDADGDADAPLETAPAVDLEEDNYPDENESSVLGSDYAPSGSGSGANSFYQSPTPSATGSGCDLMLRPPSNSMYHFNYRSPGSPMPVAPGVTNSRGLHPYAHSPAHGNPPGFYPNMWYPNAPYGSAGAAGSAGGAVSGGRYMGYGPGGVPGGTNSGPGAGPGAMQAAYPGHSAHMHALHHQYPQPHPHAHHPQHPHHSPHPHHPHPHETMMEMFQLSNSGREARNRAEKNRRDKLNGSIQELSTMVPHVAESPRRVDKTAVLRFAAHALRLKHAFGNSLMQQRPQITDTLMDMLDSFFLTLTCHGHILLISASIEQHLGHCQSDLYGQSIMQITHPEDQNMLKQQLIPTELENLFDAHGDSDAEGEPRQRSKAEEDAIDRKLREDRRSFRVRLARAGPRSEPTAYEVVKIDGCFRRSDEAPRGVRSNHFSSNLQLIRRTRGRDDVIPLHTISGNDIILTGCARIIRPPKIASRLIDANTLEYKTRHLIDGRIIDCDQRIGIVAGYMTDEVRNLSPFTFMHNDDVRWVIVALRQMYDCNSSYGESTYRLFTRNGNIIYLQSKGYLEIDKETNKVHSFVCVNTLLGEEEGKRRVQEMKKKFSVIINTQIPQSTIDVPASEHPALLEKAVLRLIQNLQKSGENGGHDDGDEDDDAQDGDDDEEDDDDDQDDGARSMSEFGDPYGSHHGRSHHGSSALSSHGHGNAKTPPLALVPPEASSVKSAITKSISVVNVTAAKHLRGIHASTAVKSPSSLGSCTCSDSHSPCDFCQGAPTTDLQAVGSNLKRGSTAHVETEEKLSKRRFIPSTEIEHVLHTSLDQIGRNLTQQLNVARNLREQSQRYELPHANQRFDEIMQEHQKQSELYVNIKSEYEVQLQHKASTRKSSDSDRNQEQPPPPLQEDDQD
T1 sequence (Q9VLD9 1-2026 partner): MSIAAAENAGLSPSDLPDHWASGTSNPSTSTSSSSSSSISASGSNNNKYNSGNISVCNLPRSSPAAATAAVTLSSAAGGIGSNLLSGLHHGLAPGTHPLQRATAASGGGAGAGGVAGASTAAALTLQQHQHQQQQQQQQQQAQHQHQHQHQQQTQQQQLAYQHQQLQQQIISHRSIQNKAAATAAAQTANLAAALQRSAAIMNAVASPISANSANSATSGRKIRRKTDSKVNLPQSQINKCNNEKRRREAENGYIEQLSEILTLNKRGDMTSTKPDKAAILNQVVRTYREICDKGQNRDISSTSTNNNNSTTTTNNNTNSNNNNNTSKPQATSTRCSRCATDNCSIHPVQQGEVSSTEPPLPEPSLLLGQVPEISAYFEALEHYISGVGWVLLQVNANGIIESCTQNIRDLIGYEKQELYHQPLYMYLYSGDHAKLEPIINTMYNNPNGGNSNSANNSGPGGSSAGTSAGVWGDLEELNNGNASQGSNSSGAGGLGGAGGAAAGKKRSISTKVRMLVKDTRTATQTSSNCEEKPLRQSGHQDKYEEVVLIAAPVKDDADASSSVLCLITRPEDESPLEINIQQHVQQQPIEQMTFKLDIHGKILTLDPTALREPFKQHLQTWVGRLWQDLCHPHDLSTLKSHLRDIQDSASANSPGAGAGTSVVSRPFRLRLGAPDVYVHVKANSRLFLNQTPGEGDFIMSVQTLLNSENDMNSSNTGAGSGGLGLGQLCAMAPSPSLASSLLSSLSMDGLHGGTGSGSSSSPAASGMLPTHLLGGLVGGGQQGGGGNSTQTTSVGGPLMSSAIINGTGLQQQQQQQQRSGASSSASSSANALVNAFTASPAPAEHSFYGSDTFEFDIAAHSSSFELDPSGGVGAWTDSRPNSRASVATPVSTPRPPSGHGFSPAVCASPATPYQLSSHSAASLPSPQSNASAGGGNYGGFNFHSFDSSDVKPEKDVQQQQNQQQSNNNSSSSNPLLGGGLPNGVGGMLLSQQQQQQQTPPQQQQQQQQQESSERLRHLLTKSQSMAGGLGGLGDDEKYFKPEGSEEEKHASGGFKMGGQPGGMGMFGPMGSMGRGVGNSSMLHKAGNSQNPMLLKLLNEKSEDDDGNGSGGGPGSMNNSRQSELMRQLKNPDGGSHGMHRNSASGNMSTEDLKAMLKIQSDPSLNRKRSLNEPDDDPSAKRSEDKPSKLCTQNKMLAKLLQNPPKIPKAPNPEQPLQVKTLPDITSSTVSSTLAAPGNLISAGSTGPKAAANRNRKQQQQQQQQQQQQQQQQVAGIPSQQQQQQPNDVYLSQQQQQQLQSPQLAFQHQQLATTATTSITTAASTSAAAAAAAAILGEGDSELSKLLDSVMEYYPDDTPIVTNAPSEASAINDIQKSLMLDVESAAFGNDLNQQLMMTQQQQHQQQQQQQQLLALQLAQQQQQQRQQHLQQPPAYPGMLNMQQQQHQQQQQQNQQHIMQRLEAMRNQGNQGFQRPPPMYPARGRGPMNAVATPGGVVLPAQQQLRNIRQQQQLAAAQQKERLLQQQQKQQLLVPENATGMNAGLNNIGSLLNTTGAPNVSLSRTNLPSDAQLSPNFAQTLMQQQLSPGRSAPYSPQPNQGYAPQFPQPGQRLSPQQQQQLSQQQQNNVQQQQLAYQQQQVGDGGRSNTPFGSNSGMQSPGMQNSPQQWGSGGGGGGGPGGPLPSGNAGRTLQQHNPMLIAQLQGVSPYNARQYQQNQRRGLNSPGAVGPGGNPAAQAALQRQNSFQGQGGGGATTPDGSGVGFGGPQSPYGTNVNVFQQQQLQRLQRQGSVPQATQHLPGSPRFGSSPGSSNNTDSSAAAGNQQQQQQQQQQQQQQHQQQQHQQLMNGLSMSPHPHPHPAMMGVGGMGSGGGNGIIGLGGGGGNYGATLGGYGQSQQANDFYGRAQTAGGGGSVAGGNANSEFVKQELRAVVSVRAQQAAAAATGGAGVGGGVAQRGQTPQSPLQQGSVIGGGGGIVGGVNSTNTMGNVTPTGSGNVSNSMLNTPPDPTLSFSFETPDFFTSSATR

Emax (JHR (GCE:TAI) [1]) [%]	Emax (human AHR [2]) [%]	Emax (JHR (GCE:TAI) [3]) [%]	Emax (human AHR [4]) [%]	Compound
85	–	–	–	Cc1c(C(=O)Nc2ccc3ncccc3c2)sc2ccccc12 [2.7, cmpd 2.7]
183	19	–	–	Cc1nc(-c2ccsc2)sc1C(=O)Nc1cnn(C)c1 [cmpd 1.1]
–	–	83	–	O=C(CCSc1nnc2ccccn12)NC(=O)NCc1ccccc1 [cmpd 1.2]
254	–	–	–	CC(C)c1c(C(=O)NCC2CCCO2)nnn1-c1ccc(Br)cc1 (stereo not shown) [cmpd 1.3]
266	–	–	–	CN(C(=O)CN1CCOC(c2nccs2)C1)c1nccs1 (stereo not shown) [cmpd 1.4]
143	52	–	–	Cc1nc(NC(=O)c2ccccc2)sc1-c1cc(C(=O)NCC(=O)N[C@H](CCCN=C(N)N)C(=O)NCC(=O)N[C@H](CC(=O)O)C(=O)N[C@H](CC(=O)O)C(=O)N[C@H](CC(=O)O)C(N)=O)n[nH]1 [cmpd 2.1] (Bz-[X1]G[dR]G[dD][dD][dD]-NH2)
–	–	110	103	CC(Sc1nccn1C)C(=O)Nc1nc(-c2ccccc2)cs1 (stereo not shown) [cmpd 2.2]
–	–	88	–	O=C(Nc1ccc(-c2nccs2)cc1)c1ccccc1C(F)(F)F [cmpd 2.3]
–	–	76	14	O=C(NCCCn1cccn1)c1ccc(C2CCCCC2)cc1 [cmpd 2.6]
–	–	126	87	Cc1c(C(=O)NCCc2cccnc2)oc2ccc(F)cc12 [cmpd 2.8]
–	–	70	19	OC(COc1ccc2cc(Br)ccc2c1)Cn1cccn1 (stereo not shown) [cmpd 2.9]
–	–	128	30	Cc1csc(CCNC(=O)c2cnc(-c3ccccc3)nc2)n1 [cmpd 2.10]
–	–	109	45	CC(NC(=O)CSCc1ccccc1)c1ccc(-n2ccnc2)cc1 (stereo not shown) [cmpd 2.12]

Compound	Emax (JHR (GCE:TAI) [1]) [%]	Emax (human AHR [2]) [%]	Emax (JHR (GCE:TAI) [3]) [%]	Emax (human AHR [4]) [%]
CC(COc1ccc(Oc2ccccc2)cc1)Oc1ccccn1 (stereo not shown) [pyriproxyfen]	–	–	62	–

— doi:10.1101/2024.01.03.574093v2 (biorxiv, 2024)
